# What was measured:
# [1] = biological target: T1, chymase (Homo sapiens, UniProt P23946); test: Chymase activity in blood vessel tissue of the living body after use during operation; type: in vivo; conditions: 10 μM during the operation; for 4 weeks
# T1 construct: the chymase activity in the blood vessel tissue of the living body; from tissue; host or cells: blood vessel tissue of the living body
# T1 sequence (P23946 22-247): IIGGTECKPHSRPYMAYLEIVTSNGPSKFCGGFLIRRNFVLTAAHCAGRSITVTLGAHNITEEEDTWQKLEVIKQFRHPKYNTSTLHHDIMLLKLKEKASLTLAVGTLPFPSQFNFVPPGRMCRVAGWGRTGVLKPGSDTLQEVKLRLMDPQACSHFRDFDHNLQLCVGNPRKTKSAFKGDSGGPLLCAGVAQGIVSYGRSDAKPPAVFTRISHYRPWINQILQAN
# Procedure: The medicament of the present invention allows at least one protease inhibitor to be administered in a substantially sufficient amount to permit epithelialization in the site of adhesion formation. […] The effective administration amount of chymase inhibitor (Suc-Val-Pro-L-Phe^P(OPh)2) can be selected in the range of 0.0001 to 100 mg per 1 kg of adult body weight, per one day. For example, it can be administered intravenously by an amount selected in the range from 0.0001 to 100 mg, preferably from 0.01 to 1 mg, and orally by an amount selected in the range from 0.1 to 100 mg, preferably from 0.1 to 10 mg. Furthermore, it can be intravenously applied by an amount in the range from 0.0001 to 1000 mg, preferably from 0.1 to 100 mg.
# [2] = cited from earlier work
# [3] = biological target: human leukocyte elastase (Homo sapiens, UniProt P08246); conditions: cited from earlier work
# Chain of human leukocyte elastase (P08246 30-267): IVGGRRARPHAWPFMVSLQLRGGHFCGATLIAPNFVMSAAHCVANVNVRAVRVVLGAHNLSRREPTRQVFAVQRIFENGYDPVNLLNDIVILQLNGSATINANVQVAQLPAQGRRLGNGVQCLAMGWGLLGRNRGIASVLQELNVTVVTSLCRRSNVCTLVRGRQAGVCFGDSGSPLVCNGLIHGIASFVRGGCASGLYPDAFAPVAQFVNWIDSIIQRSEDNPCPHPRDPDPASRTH
# [4] = system: chymotrypsin and chymotrypsin-like enzymes; conditions: cited from earlier work
# [5] = system: Cardiac muscle adhesion models; test: Prevention of adhesion by oral administration in hamster cardiac muscle adhesion model; type: in vivo, Syrian hamsters; conditions: 10 mg/kg orally once a day
# Procedure: Syrian hamsters (SLC Co., Ltd.), 6 weeks of age (weighing 85-90 g), were subject to abdominal middle incision to scrape their hearts. Cardiac muscle adhesion models were prepared. Suc-Val-Pro-Phe^P(OPh)2 (10 mg/kg) (eight cases) or placebo (eight cases) was forcibly orally administered using a canal once a day from the 3rd day before the model preparation to the 14th day after the model preparation. The adhesion levels at the 14th day after the model preparation were compared to study. Adhesion scores are as follows. Student-t test was used to test a significant difference in adhesion core.
# Adhesion level 0: A heart is easily taken out, and the heart exists independently from the circumference, as is similar to a normal heart.
# Adhesion level 1: A heart is observed to adhere to the circumferential tissue at one site by a thin film, but the adhesion site can be simply freed to release the heart.
# Adhesion level 2: A heart is observed to adhere to the circumferential tissue at a few sites, but the adhesion sites can be freed by a traction force to release the heart.
# Adhesion level 3: A heart is firmly adhered, but is distinguishable from, to the circumferential tissue at several sites, and it is hard to release the heart without a strong traction force.
# Adhesion level 4: Excessive cell growth and fibrosis occur around a heart, and the heart is observed to adhere to the circumferential tissue. The heart is so firmly adhered to the circumferential tissue that the heart is difficult to release even by a peeling traction force.
# [6] = 3rd day before to 14th day after model preparation, eight cases
compound,measurement,setting,value
CC(C)C(NC(=O)CCC(=O)O)C(=O)N1CCCC1C(=O)NC(Cc1ccccc1)P(=O)(Oc1ccccc1)Oc1ccccc1 [Suc-Val-Pro-L-Phe^P(OPh)2],suppression of chymase activity in the blood vessel tissue,[1],suppress significantly
same,half-life in human blood plasma,[2],about 20 hours
Meo-Suc-Ala-Ala-Pro-Val^P(OPh)2,inhibitor potency with human leukocyte elastase,[3],relatively potent inhibitors
Suc-Val-Pro-Phe^P(OPh)2,inhibitor potency for chymotrypsin and chymotrypsin-like enzymes,[4],relatively potent inhibitor
same,cases ranked as adhesion level 0,[5]; [6],75%
same,cases ranked as adhesion level 2,[5]; [6],12.5%
same,cases ranked as adhesion level 4,[5]; [6],12.5%
same,adhesion level versus placebo group,"[5]; 14th day, Student-t test",fell down significantly in adhesion level
same,half-life in human blood plasma,[2],about 20 hours
Boc-Val-Pro-Val^P(OPh)2,inhibitor potency with human leukocyte elastase,[3],relatively potent inhibitors

# Source: patent publication US20060122101A1, “Drug for preventing, regulating or treating adhesion” (priority 2003, published 2006)
